In US20250281480A1, “PHARMACEUTICAL DRY POWDER INHALATION FORMULATION” (Bayer Aktiengesellschaft, priority 2021, published 2025):

Legend:
[1] = Deposited lung dose with absorbing filters and prediction of human dose (PAH minipig model); format: in vivo
Protocol: The anesthetized thromboxane A2 challenged PAH-minipig model (see experimental part E-1) is considered to be the most relevant and sensitive model for the prediction of the human minimal effective and effective doses (MED, ED). To determine effective LDs, experiments were repeated with the difference that absorbing filters were attached at the end of the tubes to determine the deposited lung dose. […] Assuming a minimal effective ND of 3 μg/kg (5% reduction in PAP) the minimal effective deposited LD is considered as 0.15 μg/kg (see FIG. 1).
The nominal doses of 3, 10, 30 and 100 μg/kg of the minipig model were multiplied by the filter deposition factor of 5% resulting in 0.15, 0.5, 1.5 and 5 μg/kg lung deposited doses in the minipig. These values were multiplied by 60 kg to achieve the lung dose in humans. Thus, the FPD reflecting the PAP reduction for a 60 kg human are calculated to be 9, 30, 90 and 300 μg.
Thus, via a direct up-scaling from minipig, the predictive MED (5% PAP reduction) for a human based on a 60 kg body weight is calculated to be 9 μg LDD, not considering protein binding within the respiratory tract. As a surrogate for unbound concentrations, which are the likely active concentrations in the lung, we considered respective differences in fractions unbound in plasma of minipig and human. This consideration results in a minimum effective lung dose (LD) for a 60 kg participant of 41 μg LDD for the assumed 5% reduction on PAP. Consequently, the predictive minimal human effective dose is in the range from 9 μg LDD to 41 μg LDD based on a 60 kg body weight (see FIG. 2).
In order to generate a human dose estimate, experiments in the PAH minipig model for comparative example 11 were repeated with the difference that absorbing filters were attached at the end of the tubes to […] determine the deposited lung dose. […] The arithmetic mean of the aerosol fraction deposited on the filters is 5% based on all results of the filter experiments, resulting in relative lung deposited doses of about 0.15 μg/kg (3 μg/kg nominal dose), 0.5 μg/kg (10 μg/kg nominal dose), 1.5 μg/kg (30 μg/kg nominal dose) and 5 μg/kg (100 μg/kg nominal dose). Assuming a minimal effective nominal dose of 3 μg/kg for a 5% reduction in PAP and a mean nebulization efficiency of 5%, the minimal effective deposited lung dose is considered as 0.15 μg/kg based on the PAH minipig model. Therefore, for a human patient of 60 kg body weight a minimal effective lung deposited dose of 9-41 μg, depending on whether or not an effect of different protein binding (see table 37) is postulated. Considering 100 μg/kg as effective dose in the minipig model, 300-1370 μg lung deposited dose is postulated as effective dose, again depending on the consideration of different interspecies protein binding.

plasma proteins [2] = assay: Protein binding via Transil assay, human plasma; format: in vitro ADME; settings: human plasma
Excerpt: (§1) The distribution of a test substance between Transil® (phosphatidylcholine lipid bilayers immobilized on silica beads) and plasma is a characteristic feature of any pharmaceutical compound and is dependent on its extent of binding to plasma proteins. By comparing the distribution between Transil® and buffer with the distribution between Transil® and plasma of any species of interest, the unbound fraction in the plasma of the respective animal species can be calculated in vitro. The respective plasma and buffer concentrations were determined via a radioactivity analysis. A detailed description of the method and its validation was published by Schuhmacher et al. (2).

plasma proteins [3] = assay: Protein binding via Transil assay, monkey plasma; format: in vitro ADME
Excerpt: as §1

[4] = tested on: unilateral ventilated minipig; assay: Unilateral ventilated minipig model as a proxy of VQ-mismatch; format: in vivo; settings: inhaled application
[5] = tested on: acetylcholine [ACh] rat model; assay: Acetylcholine [ACh] rat model, bronchodilation; settings: in vivo
[6] = tested on: chronic ovalbumin asthma mice model; assay: Chronic ovalbumin asthma mice model; settings: mouse, in vivo
[7] = Phase I, single inhaled, inhaled + charcoal, oral and intravenous doses in healthy male subjects: plasma concentrations, lung deposition; format: in vivo, human
Protocol: Healthy white male subjects, aged 18 to 45 years with a body mass index (BMI) above/equal 18.5 and below/equal 29.9 kg/m^2 were treated in a clinical phase I study with a single inhaled dose of 1000 μg (nominal dose), a single inhaled dose of 1000 μg (nominal dose)+charcoal block, a single oral dose of 1000 μg and a single infusion over 2 h of 100 μg of example 4. As the bioavailability of an intravenous application is generally 100% per definition and therefore higher than in case of an oral or […], the intravenous dose was carefully selected to be lower than the oral and inhaled dose to avoid higher plasma concentration resulting from a high IV dose and potential side effect, e.g. reduction in blood pressure or syncope. Therefore, 100 μg was selected for the IV dose in this investigation. Seven days washout period between treatments was applied. The subjects swallowed a solution for oral administration (20 ml comprising 1000 μg see under C-2, table 49a). The subjects received a solution as a single infusion over 2 hours (2 ml comprising 100 μg see under C-2 table 49a). The subjects inhaled the drug powder from capsules (see under C-1, tables 17 and 20) inserted into a handheld inhalation device by one deep inhalative breath. After inhalation of the dry powder formulation of this drug, some parts of the nominal dose remain in the capsule and the device, the dose which reaches the body at the mouthpiece is called the emitted dose. The emitted dose can be calculated/determined as followed: nominal dose−(remains in the capsule+remains in the device). After inhalation of the dry powder, one part of the emitted dose enters the gastrointestinal tract (GT and is called the oral part of the emitted dose, the other part of the emitted dose which reaches the lung through the respiratory airways is called the lung dose and represents the lung deposited dose. As the lung is the target organ of the effect, the lung deposited dose must be quantified. Lung deposition can be indirectly estimated, by determining the part of the nominal dose which reaches the GIT and the remains in the capsule and the device. To investigate and determine lung deposition, the following investigations were done (see also FIG. 59): • 1—Inhaled application of a single dose of 1000 μg of the dry powder. • 2—Inhaled application of a single dose of 1000 μg of the dry powder in combination with oral administration of charcoal block. The charcoal block capped the oral absorption of GIT part of the dose, as example 4 completely adsorbed to charcoal block. This implies that the concentrations of example 4 measured reach the systemic circulation via the lung. • 3—Administration of a single oral dose of 1000 μg example 4 to determine the oral absorption. • 4—Administration of a 2 h infusion of example 4 to investigate the elimination.

[8] = Storage stability of pseudopolymorphic forms (XRPD); format: physicochemical; settings: same storage conditions as table 15

Structure (SMILES) | Relative lung deposited dose in minipig ([1]; 3 μg/kg nominal dose) | Relative lung deposited dose in minipig ([1]; 10 μg/kg nominal dose) | Relative lung deposited dose in minipig ([1]; 30 μg/kg nominal dose) | Relative lung deposited dose in minipig ([1]; 100 μg/kg nominal dose) | free fraction, lower than comparative example 1 (plasma proteins [2]) | free fraction, lower than comparative example 1 (plasma proteins [3]) | effect on PAP and oxygenation [4] | effect on ventilation [5] | effect on airway hyper-responsiveness and inflammation [6] | absolute bioavailability ([7]; dry powder inhaled with charcoal) | absolute bioavailability ([7]; dry powder inhaled without charcoal) | elimination half-life ([7]; inhaled 1000 μg with charcoal) | elimination half-life ([7]; inhaled 1000 μg without charcoal) | elimination half-life ([7]; intravenous, 100 μg infusion over 2 h) | elimination half-life ([7]; oral, 1000 μg) | storage stability [8]
O=C(O)c1ccc(CCN(CCc2ccccc2OCc2ccc(-c3ccc(C(F)(F)F)cc3)cc2Cl)[C@H]2CCCc3nc(C(=O)O)ccc32)cc1 [Comparative example 11, (5S)-5-{[2-(4-carboxyphenyl)ethyl][2-(2-{[3-chloro-4′-(trifluoromethyl)[biphenyl]-4-yl]methoxy}phenyl)ethyl]amino}-5,6,7,8-tetrahydroquinoline-2-carboxylic Acid] | 0.15 µg/kg | 0.50 µg/kg | 1.5 µg/kg | 5.0 µg/kg | 2 times lower | 2 times lower | lowered PAP without negative effects on oxygenation | bronchodilatory effect | inhibitory effect on airway hyper-responsiveness and inflammation | – | – | – | – | – | – | –
O=C(O)c1ccc(CCN(CCc2ccccc2OCc2ccc(-c3ccc(C(F)(F)F)cc3)cc2Cl)[C@H]2CCCc3nc(C(=O)O)ccc32)cc1 [Example 4, (5S)—{[2-(4-Carboxyphenyl)ethyl][2-(2-{[3-chloro-4′-(trifluoromethyl)biphenyl-4-yl]methoxy}phenyl)-ethyl]amino}-5,6,7,8-tetrahydroquinoline-2-carboxylic Acid as Monohydrate I] | – | – | – | – | – | – | – | – | – | 16.3% | 18.8% | 16.1 h | 15.1 h | 0.26 h | 4.43 h | stable
